Experimental data as given in ChEMBL document CHEMBL1201862, “PubChem BioAssay data set” (2004).
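Interpolation was linear, between the two tested concentrations surrounding the appropriate level; five concentrations were tested over 48 hours in 96-well plates. GI50 is the concentration that inhibits growth by half.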 The source made the active and inactive calls. Rule as the data show it: active = GI50 up to about 1.1 µM and inactive = higher.

How the values were obtained:
Test in all cases: NCI tumour cell line growth inhibition, 48 h
SK-MEL-2 = test system: SK-MEL-2
HCC 2998 = test system: HCC 2998
HT-29 = test system: HT-29
ACHN = test system: ACHN
NCI-H226 = test system: NCI-H226
UACC-257 = test system: UACC-257
COLO 205 = test system: COLO 205
CAKI-1 = test system: CAKI-1
SK-MEL-5 = test system: SK-MEL-5
SK-MEL-28 = test system: SK-MEL-28
SF-539 = test system: SF-539
RXF 393 = test system: RXF 393
EKVX = test system: EKVX
LXFL 529 = test system: LXFL 529
RPMI-8226 = test system: RPMI-8226
SR = test system: SR
T47D = test system: T47D
BT-549 = test system: BT-549
MDA-MB-231 = test system: MDA-MB-231
MDA-N = test system: MDA-N

Row | Compound | GI50 (SK-MEL-2) | GI50 (HCC 2998) | GI50 (HT-29) | GI50 (ACHN) | GI50 (NCI-H226) | GI50 (UACC-257) | GI50 (COLO 205) | GI50 (CAKI-1) | GI50 (SK-MEL-5) | GI50 (SK-MEL-28) | GI50 (SF-539) | GI50 (RXF 393) | GI50 (EKVX) | GI50 (LXFL 529) | GI50 (RPMI-8226) | GI50 (SR) | GI50 (T47D) | GI50 (BT-549) | GI50 (MDA-MB-231) | GI50 (MDA-N)
1 | COC(=O)C(CCCN1C(=O)c2ccccc2C1=O)C(=O)OC | > 100 µM (inactive) | > 100 µM (inactive) | > 100 µM (inactive) | > 100 µM (inactive) | > 100 µM (inactive) | > 100 µM (inactive) | > 100 µM (inactive) | > 100 µM (inactive) | > 100 µM (inactive) | > 100 µM (inactive) | > 100 µM (inactive) | > 100 µM (inactive) | > 100 µM (inactive) | > 100 µM (inactive) | – | – | – | – | – | –
2 | CC1=C(C(=O)CC(=O)C(=O)NC2C3CC4CC(C3)CC2C4)Sc2ccccc2N1 (configuration not stated) | > 100 µM (inactive) | > 100 µM (inactive) | > 100 µM (inactive) | > 100 µM (inactive) | – | > 100 µM (inactive) | > 31.6 µM (inactive) | 99.1 µM (inactive) | > 83.6 µM (inactive) | > 100 µM (inactive) | > 100 µM (inactive) | > 100 µM (inactive) | > 100 µM (inactive) | > 100 µM (inactive) | 74.6 µM (inactive) | – | – | – | – | –
3 | CCN(CC)C(=O)CC12CCCCC1=Nc1ccccc12 (configuration not stated) | > 100 µM (inactive) | > 100 µM (inactive) | > 100 µM (inactive) | > 100 µM (inactive) | – | > 100 µM (inactive) | > 100 µM (inactive) | > 100 µM (inactive) | > 100 µM (inactive) | > 100 µM (inactive) | > 100 µM (inactive) | – | > 100 µM (inactive) | > 100 µM (inactive) | > 100 µM (inactive) | – | – | – | – | –
4 | S=C(N/N=C/c1ccco1)NC12CC3CC(CC(C3)C1)C2 | > 100 µM (inactive) | 74.8 µM (inactive) | 31.4 µM (inactive) | > 100 µM (inactive) | > 100 µM (inactive) | 32.2 µM (inactive) | 15.3 µM (inactive) | > 100 µM (inactive) | 73.8 µM (inactive) | > 100 µM (inactive) | > 100 µM (inactive) | > 100 µM (inactive) | > 100 µM (inactive) | 52.2 µM (inactive) | – | – | – | – | – | –
5 | O=C(CN(c1ccc(S(=O)(=O)O)cc1)c1ccc(S(=O)(=O)O)cc1)Nn1cnc2ccc(S(=O)(=O)N(c3ccc(S(=O)(=O)O)cc3)c3ccc(S(=O)(=O)O)cc3)cc2c1=O | > 100 µM (inactive) | > 100 µM (inactive) | > 100 µM (inactive) | > 100 µM (inactive) | > 100 µM (inactive) | > 100 µM (inactive) | > 100 µM (inactive) | > 100 µM (inactive) | > 100 µM (inactive) | > 100 µM (inactive) | > 100 µM (inactive) | > 100 µM (inactive) | > 100 µM (inactive) | – | > 100 µM (inactive) | > 100 µM (inactive) | > 100 µM (inactive) | > 100 µM (inactive) | > 100 µM (inactive) | > 100 µM (inactive)
6 | Oc1ccc(-c2c3ccccc3c(-c3ccc(OCCBr)cc3)c3ccccc23)cc1 | 22.2 µM (inactive) | 44.2 µM (inactive) | 19.6 µM (inactive) | 29.1 µM (inactive) | 20 µM (inactive) | 24.2 µM (inactive) | 31.2 µM (inactive) | 27.4 µM (inactive) | 19.1 µM (inactive) | 27.9 µM (inactive) | 13.9 µM (inactive) | 24.7 µM (inactive) | 32.9 µM (inactive) | – | 31.1 µM (inactive) | 31.8 µM (inactive) | 35.7 µM (inactive) | 30.1 µM (inactive) | 23.6 µM (inactive) | 26.4 µM (inactive)
7 | COc1cc(Nc2nc3ccccc3nc2C(C)C)cc(OC)c1OC | > 100 µM (inactive) | > 100 µM (inactive) | 36.4 µM (inactive) | > 100 µM (inactive) | > 100 µM (inactive) | > 100 µM (inactive) | > 100 µM (inactive) | > 100 µM (inactive) | > 100 µM (inactive) | > 100 µM (inactive) | > 100 µM (inactive) | > 100 µM (inactive) | 42.7 µM (inactive) | – | 83.2 µM (inactive) | > 100 µM (inactive) | > 100 µM (inactive) | > 100 µM (inactive) | > 100 µM (inactive) | > 100 µM (inactive)
8 | COC(=O)C(CC(C)C)NC(=O)C(NC(=O)c1ccc(-c2ccc(Cl)cc2Cl)o1)C(C)C (configuration not stated) | 21.3 µM (inactive) | 17.3 µM (inactive) | 15.3 µM (inactive) | 20.8 µM (inactive) | 32.4 µM (inactive) | 17.1 µM (inactive) | 17.7 µM (inactive) | 15.7 µM (inactive) | 20.3 µM (inactive) | 33.4 µM (inactive) | 29.2 µM (inactive) | 14.8 µM (inactive) | 13.7 µM (inactive) | – | 11.6 µM (inactive) | 19.2 µM (inactive) | 15.3 µM (inactive) | 30 µM (inactive) | 13.8 µM (inactive) | 20.2 µM (inactive)
9 | CC1(C)COC2=C(C1)C(=O)c1ccccc1C2=O | 1.91 µM (inactive) | 1.7 µM (inactive) | 2.53 µM (inactive) | 1.55 µM (inactive) | 2.24 µM (inactive) | 0.828 µM (active) | 2.2 µM (inactive) | 2.23 µM (inactive) | 0.71 µM (active) | 1.64 µM (inactive) | 1.54 µM (inactive) | 2.02 µM (inactive) | 1.9 µM (inactive) | – | 1.32 µM (inactive) | 2.66 µM (inactive) | 0.558 µM (active) | 1.85 µM (inactive) | 2.04 µM (inactive) | 0.182 µM (active)
10 | CC1=C/C(=C(/c2ccc(O)c(C)c2)c2ccccc2C(=O)O)C=CC1=O | 20.6 µM (inactive) | 19.1 µM (inactive) | 21.9 µM (inactive) | 18.3 µM (inactive) | 23.1 µM (inactive) | 18.7 µM (inactive) | 19.9 µM (inactive) | 17.6 µM (inactive) | 20.4 µM (inactive) | 20.4 µM (inactive) | 19 µM (inactive) | 17.4 µM (inactive) | 19.4 µM (inactive) | – | 20 µM (inactive) | 20.7 µM (inactive) | 26.8 µM (inactive) | 21.1 µM (inactive) | 19.9 µM (inactive) | 18.7 µM (inactive)
11 | Cn1c(=O)nc2n(-c3ccc(Cl)cc3)c(-c3ccccc3)c(-c3ccccc3)nc-2c1=O | 23.6 µM (inactive) | 47.2 µM (inactive) | 32.1 µM (inactive) | 19.9 µM (inactive) | 19.2 µM (inactive) | 24.3 µM (inactive) | 33 µM (inactive) | 24.8 µM (inactive) | 20.1 µM (inactive) | 25.5 µM (inactive) | 23 µM (inactive) | – | 47 µM (inactive) | 27.7 µM (inactive) | 22.1 µM (inactive) | – | – | – | – | –
12 | CN1Cc2c(ccc3c2OCO3)[C@@H]2[C@H](O)Cc3cc4c(cc3[C@@H]21)OCO4 | 2.68 µM (inactive) | 2.11 µM (inactive) | 2.14 µM (inactive) | 11 µM (inactive) | 3.01 µM (inactive) | 5.26 µM (inactive) | 2.2 µM (inactive) | 4.89 µM (inactive) | 1.41 µM (inactive) | 4.98 µM (inactive) | 2.07 µM (inactive) | 2.72 µM (inactive) | 4.51 µM (inactive) | – | 4.39 µM (inactive) | 4.15 µM (inactive) | 9.23 µM (inactive) | 2.55 µM (inactive) | 3.29 µM (inactive) | 0.435 µM (active)
13 | Cn1c(CC(O)c2nc3ccccc3n2C)nc2ccccc21 (configuration not stated) | > 31.3 µM (inactive) | > 100 µM (inactive) | > 32.8 µM (inactive) | > 23.6 µM (inactive) | > 48.3 µM (inactive) | > 19.1 µM (inactive) | > 28.4 µM (inactive) | > 100 µM (inactive) | > 32.8 µM (inactive) | > 32.9 µM (inactive) | > 39.1 µM (inactive) | > 24.7 µM (inactive) | > 100 µM (inactive) | – | > 11.5 µM (inactive) | > 100 µM (inactive) | > 8.57 µM (inactive) | > 34.4 µM (inactive) | > 34.8 µM (inactive) | > 100 µM (inactive)
14 | Cc1ccc(-c2cn3c(nc4ccccc43)c(-c3ccccc3)n2)cc1 | 18 µM (inactive) | > 100 µM (inactive) | > 100 µM (inactive) | 34 µM (inactive) | 58.3 µM (inactive) | > 100 µM (inactive) | > 100 µM (inactive) | 37.7 µM (inactive) | > 100 µM (inactive) | > 100 µM (inactive) | 58.2 µM (inactive) | 25.1 µM (inactive) | > 100 µM (inactive) | – | > 100 µM (inactive) | > 100 µM (inactive) | 32.1 µM (inactive) | 32.5 µM (inactive) | > 100 µM (inactive) | > 100 µM (inactive)
15 | COC(=O)[C@H](CNC(=O)/C=C/c1ccc(OC(C)=O)c(OC(C)=O)c1)NC(=O)/C=C/c1ccc(OC(C)=O)c(OC(C)=O)c1 | > 100 µM (inactive) | > 100 µM (inactive) | > 100 µM (inactive) | > 100 µM (inactive) | > 100 µM (inactive) | > 100 µM (inactive) | > 100 µM (inactive) | > 100 µM (inactive) | 62.7 µM (inactive) | > 100 µM (inactive) | > 100 µM (inactive) | > 100 µM (inactive) | > 100 µM (inactive) | – | > 100 µM (inactive) | > 100 µM (inactive) | 44.4 µM (inactive) | > 100 µM (inactive) | > 100 µM (inactive) | > 100 µM (inactive)
16 | CN(C)CCC(/C=C/c1ccccc1)=N\Nc1ccc(Cl)cc1 | 2 µM (inactive) | 1.69 µM (inactive) | 3.86 µM (inactive) | 2.23 µM (inactive) | – | 4.18 µM (inactive) | 4.31 µM (inactive) | – | 14.7 µM (inactive) | 12.8 µM (inactive) | 2.25 µM (inactive) | 6.05 µM (inactive) | 2.49 µM (inactive) | 2.84 µM (inactive) | 1.9 µM (inactive) | – | – | – | – | –
